Like-named read-outs stand apart in the source and are kept apart here.
Experiments:
[1] = molecular target: human TLR8 (Homo sapiens (Human), UniProt Q9NR97); assay: TLR8 inhibition reporter assay (HEK-Blue SEAP); settings: read-out: TLR8 IC50;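 further: SEAP driven by IFN-β minimal promoter carrying NF-κB and AP-1 sites, compounds dosed 0.05 nM to 50 µM for 22 h, inhibition scaled between agonist-plus-DMSO and reference-inhibitor wells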
[2] = molecular target: human TLR7 (Homo sapiens (Human), UniProt Q9NYK1); assay: TLR7 inhibition reporter assay (HEK-Blue SEAP); format: cell-based
Sequence of human TLR7 (Q9NYK1 27-1049): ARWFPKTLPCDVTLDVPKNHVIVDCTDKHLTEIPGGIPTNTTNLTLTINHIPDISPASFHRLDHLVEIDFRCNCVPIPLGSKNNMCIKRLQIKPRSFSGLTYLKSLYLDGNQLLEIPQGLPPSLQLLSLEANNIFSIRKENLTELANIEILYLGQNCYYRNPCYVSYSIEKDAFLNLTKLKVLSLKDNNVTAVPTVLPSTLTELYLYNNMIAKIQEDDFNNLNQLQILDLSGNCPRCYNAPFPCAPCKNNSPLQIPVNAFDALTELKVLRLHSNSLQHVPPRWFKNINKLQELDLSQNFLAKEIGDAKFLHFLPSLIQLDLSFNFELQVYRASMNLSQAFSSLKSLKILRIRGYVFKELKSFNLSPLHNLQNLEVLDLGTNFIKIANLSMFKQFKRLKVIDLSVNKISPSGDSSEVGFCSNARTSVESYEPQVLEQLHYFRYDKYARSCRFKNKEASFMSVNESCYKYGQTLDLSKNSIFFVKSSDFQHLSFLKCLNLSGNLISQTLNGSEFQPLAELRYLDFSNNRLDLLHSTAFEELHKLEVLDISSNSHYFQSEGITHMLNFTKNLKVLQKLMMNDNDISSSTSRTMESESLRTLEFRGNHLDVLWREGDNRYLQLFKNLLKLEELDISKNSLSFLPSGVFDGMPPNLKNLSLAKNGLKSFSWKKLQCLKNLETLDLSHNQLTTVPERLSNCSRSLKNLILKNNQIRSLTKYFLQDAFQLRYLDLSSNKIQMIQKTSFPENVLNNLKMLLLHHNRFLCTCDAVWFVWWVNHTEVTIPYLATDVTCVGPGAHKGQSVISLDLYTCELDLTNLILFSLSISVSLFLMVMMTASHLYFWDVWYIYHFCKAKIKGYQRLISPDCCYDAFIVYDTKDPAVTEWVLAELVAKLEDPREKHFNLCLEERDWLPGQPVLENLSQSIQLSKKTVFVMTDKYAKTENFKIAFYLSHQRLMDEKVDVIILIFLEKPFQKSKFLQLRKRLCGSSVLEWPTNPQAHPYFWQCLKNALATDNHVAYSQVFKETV

[3] = molecular target: human TLR9 (Homo sapiens (Human), UniProt Q9NR96); assay: TLR9 inhibition reporter assay (HEK-Blue SEAP); settings: read-out: TLR9 IC50;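 further: SEAP driven by an IFN-β minimal promoter with NF-κB and AP-1 sites, read after 22 h, compounds dosed 0.05 nM–50 µM, inhibition scaled between agonist plus DMSO and reference-inhibitor wells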
Sequence of human TLR9 (Q9NR96 26-1032): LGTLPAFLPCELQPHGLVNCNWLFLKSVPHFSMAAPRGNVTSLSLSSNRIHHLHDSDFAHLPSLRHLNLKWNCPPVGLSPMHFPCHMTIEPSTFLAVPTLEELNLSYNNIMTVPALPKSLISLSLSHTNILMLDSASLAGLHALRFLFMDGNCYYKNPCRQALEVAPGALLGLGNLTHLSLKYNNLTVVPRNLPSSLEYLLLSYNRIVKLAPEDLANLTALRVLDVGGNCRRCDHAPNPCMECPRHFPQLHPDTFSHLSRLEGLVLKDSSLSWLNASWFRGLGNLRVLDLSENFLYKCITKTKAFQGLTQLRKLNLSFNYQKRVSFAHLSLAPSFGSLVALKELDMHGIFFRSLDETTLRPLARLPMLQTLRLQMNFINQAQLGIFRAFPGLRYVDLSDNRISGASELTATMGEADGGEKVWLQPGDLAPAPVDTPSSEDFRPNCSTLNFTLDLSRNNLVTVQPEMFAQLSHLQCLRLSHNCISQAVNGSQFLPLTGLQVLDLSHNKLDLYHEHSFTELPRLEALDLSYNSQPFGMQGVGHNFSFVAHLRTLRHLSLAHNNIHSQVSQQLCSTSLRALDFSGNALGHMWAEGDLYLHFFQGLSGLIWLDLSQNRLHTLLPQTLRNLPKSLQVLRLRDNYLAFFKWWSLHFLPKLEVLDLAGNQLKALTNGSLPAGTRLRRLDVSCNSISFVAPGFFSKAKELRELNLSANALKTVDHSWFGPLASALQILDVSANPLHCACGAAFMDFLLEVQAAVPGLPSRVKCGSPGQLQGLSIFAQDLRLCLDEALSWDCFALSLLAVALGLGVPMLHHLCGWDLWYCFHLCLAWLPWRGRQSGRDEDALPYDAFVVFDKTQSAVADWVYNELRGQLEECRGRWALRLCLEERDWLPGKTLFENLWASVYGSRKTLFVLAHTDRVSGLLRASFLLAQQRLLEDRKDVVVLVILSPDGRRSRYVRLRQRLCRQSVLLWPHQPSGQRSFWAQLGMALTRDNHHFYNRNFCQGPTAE

[4] = HEK-Blue human TLR8 cells, R848 15.9 μM
[5] = HEK-Blue human TLR7 cells, gardiquimod 7.5 μM
[6] = HEK-Blue human TLR9 cells, ODN2006 5 nM
[7] = HEK-Blue cells overexpressing human TLR8, R848 15.9 μM stimulation, SEAP reporter
[8] = HEK-Blue cells overexpressing human TLR7, gardiquimod 7.5 μM stimulation, SEAP reporter
[9] = HEK-Blue cells overexpressing human TLR9, ODN2006 5 nM stimulation, SEAP reporter
[10] = HEK-Blue cells overexpressing human TLR8, SEAP reporter, R848 15.9 μM
[11] = HEK-Blue cells overexpressing human TLR7, SEAP reporter, gardiquimod 7.5 μM
[12] = HEK-Blue cells overexpressing human TLR9, SEAP reporter, ODN2006 5 nM

Sequence of human TLR8 (Q9NR97 27-1041): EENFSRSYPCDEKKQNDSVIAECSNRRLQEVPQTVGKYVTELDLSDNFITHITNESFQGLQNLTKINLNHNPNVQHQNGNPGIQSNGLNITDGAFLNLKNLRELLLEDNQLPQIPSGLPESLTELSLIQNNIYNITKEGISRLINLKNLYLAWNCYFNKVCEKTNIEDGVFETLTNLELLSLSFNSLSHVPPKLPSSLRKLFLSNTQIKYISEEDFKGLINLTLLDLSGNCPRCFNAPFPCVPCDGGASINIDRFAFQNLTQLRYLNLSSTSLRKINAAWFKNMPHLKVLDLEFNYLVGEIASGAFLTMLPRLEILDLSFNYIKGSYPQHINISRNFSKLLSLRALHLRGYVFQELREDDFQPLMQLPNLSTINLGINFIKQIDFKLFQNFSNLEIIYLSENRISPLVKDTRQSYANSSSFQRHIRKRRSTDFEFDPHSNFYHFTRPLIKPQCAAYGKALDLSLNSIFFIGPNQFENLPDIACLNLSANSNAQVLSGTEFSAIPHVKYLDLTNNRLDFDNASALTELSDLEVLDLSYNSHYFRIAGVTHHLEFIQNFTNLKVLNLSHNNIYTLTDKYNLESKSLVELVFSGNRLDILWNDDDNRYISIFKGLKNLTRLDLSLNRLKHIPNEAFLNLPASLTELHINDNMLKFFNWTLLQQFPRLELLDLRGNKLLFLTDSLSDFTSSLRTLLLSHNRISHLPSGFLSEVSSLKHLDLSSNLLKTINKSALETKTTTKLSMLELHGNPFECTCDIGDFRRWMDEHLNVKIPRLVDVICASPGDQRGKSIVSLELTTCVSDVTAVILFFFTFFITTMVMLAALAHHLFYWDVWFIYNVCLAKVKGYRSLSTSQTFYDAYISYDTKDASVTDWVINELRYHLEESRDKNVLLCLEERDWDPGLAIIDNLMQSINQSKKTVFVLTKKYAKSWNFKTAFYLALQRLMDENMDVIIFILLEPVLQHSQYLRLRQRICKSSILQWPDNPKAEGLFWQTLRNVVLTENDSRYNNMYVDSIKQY

| SMILES | IC50 [1, 4] [nM] | IC50 [2, 5] [nM] | IC50 [3, 6] [nM] | IC50 [1, 7] [nM] | IC50 [2, 8] [nM] | IC50 [3, 9] [nM] | further results |
| --- | --- | --- | --- | --- | --- | --- | --- |
| COC1CN(CC(=O)N2CCN(c3ccc4[nH]c(-c5cn6ncnc6c(C)c5C)c(C(C)C)c4n3)CC2)C1 [Example 916] | 11 | […] | 14500 |  |  |  |  |
| COCCN1CC2(CC(c3ccc4[nH]c(-c5cn6ncnc6c(C)c5C)c(C(C)C)c4n3)C2)C1 [Example 1031] | 2 | 18 | 12700 |  |  |  |  |
| CNC1CCC(c2ccc3[nH]c(-c4cn(CCS(C)(=O)=O)c5ncccc45)c(C(C)C)c3n2)CC1 (stereo not drawn) [Example 269] |  |  |  | 88 | 223 | 670 |  |
| CC(C)c1c(-c2cn(C)c3ncccc23)[nH]c2ccc(N3CC(NCC(=O)N(C)C)C3)nc12 [Example 37] |  |  |  | 465 | 1270 | > 50000 |  |
| Cc1c(-c2[nH]c3ccc(N4CCC(N(C)Cc5ncccn5)CC4)nc3c2C(C)C)cn2ncnc2c1C [Example 60] |  |  |  | 5.9 | 5.6 | 20200 |  |
| Cc1c(-c2[nH]c3ccc(C4CCC(N(C)C5COC5)CC4)nc3c2C(C)C)cn2ncnc2c1C (stereo not drawn) [Example 401] |  |  |  |  |  |  | IC50 [1, 10]: 6.4 nM; IC50 [2, 11]: 5.7 nM; IC50 [3, 12]: 5720 nM |
| Cc1c(-c2[nH]c3ccc(N4CCCN(CC(=O)N(C)C)CC4)nc3c2C(C)C)cn2ncnc2c1C [Example 163] |  |  |  | 5 | 9.7 | 24800 |  |
| Cc1c(-c2[nH]c3ccc(N4C[C@@H](C)NC[C@H]4C)nc3c2C(C)C)cn2ncnc2c1C [Example 993] | 1.5 | 0.82 | 7230 |  |  |  |  |
| Cc1c(-c2[nH]c3ccc(N4CCN(C(=O)CN(C)C(C)C)CC4)nc3c2C(C)C)cn2ncnc2c1C [Example 872] | 3.8 | 0.97 | 9540 |  |  |  |  |
| Cc1c(-c2[nH]c3ccc(C4CCC(N5CC(O)C5)CC4)nc3c2C(C)C)cn2ncnc2c1C (stereo not drawn) [Example 1046] | 2.4 | 0.64 | 2500 |  |  |  |  |
| CCN(C)CC(=O)N1CCN(c2ccc3[nH]c(-c4cn5ncnc5c(C)c4N)c(C(C)C)c3n2)C[C@H]1C [Example 942] | 3.4 | 0.5 | 12000 |  |  |  |  |
| Cc1c(-c2[nH]c3ccc(N4CCN[C@@H](C)C4)nc3c2C(C)C)cn2ncnc2c1C [Example 989] | 0.31 | 0.69 | 7100 |  |  |  |  |
| Cc1c(-c2[nH]c3ccc(C4CCC(N(CC#N)C5COC5)CC4)nc3c2C(C)C)cn2ncnc2c1C (stereo not drawn) [Example 441] |  |  |  |  |  |  | IC50 [1, 10]: 0.63 nM; IC50 [2, 11]: 0.79 nM; IC50 [3, 12]: 1660 nM |
| Cc1cc(-c2[nH]c3ccc(C4CCC(NC5COC5)CC4)nc3c2C(C)C)cc(C)n1 (stereo not drawn) [Example 287] |  |  |  | 33 | 25 | 2360 |  |
| CC(C)c1c(-c2cn(C)c3ncncc23)[nH]c2ccc(N3CCN(C)CC3)nc12 [Example 125] |  |  |  | 0.66 | 2.6 | 6540 |  |
| COc1cc(-c2[nH]c3ccc(C4CCC(NC5CCOCC5)C4)nc3c2C(C)C)cn2ncnc12 (stereo not drawn) [Example 707] |  |  |  |  |  |  | IC50 [1, 10]: 5.3 nM; IC50 [2, 11]: 1.5 nM; IC50 [3, 12]: 1410 nM |
| Cc1c(-c2[nH]c3ccc(N4CCC(NC5CCOCC5)CC4)nc3c2C(C)C)cn2ncnc2c1C [Example 49] |  |  |  | 0.62 | 1 | 2670 |  |
| Cc1c(-c2[nH]c3ccc(C4CC5(C4)CN(C4CCOCC4)C5)nc3c2C(C)C)cn2ncnc2c1C [Example 1024] | 1.2 | 1.8 | 4540 |  |  |  |  |
| CCN(CCS(C)(=O)=O)C1CCC(c2nc3c(C(C)C)c(-c4cn5ncnc5c(C)c4C)[nH]c3cc2F)CC1 (stereo not drawn) [Example 510] |  |  |  |  |  |  | IC50 [1, 10]: 28 nM; IC50 [2, 11]: 5.9 nM; IC50 [3, 12]: > 50000 nM |
| CC(C)c1c(-c2cc(CO)c3ncnn3c2)[nH]c2ccc(C3CCC(NCc4c[nH]nn4)CC3)nc12 (stereo not drawn) [Example 221] |  |  |  | 13 | 3.7 | 435 |  |
| COc1cc(-c2[nH]c3cc(C)c(C4CCC(NCC5(C)COC5)CC4)nc3c2C(C)C)cn2ncnc12 (stereo not drawn) [Example 315] |  |  |  | 29 | 1.8 | 5220 |  |
| Cc1c(-c2[nH]c3ccc(N4CCN(C(=O)CN5CCC(C)(O)C5)CC4)nc3c2C(C)C)cn2ncnc2c1C (stereo not drawn) [Example 948] | 1.4 | 2.8 | 12800 |  |  |  |  |
| COc1cc(-c2[nH]c3cc(C)c(C4CCN(CC(C)(C)O)CC4)nc3c2C(C)C)cn2ncnc12 [Example 587] |  |  |  |  |  |  | IC50 [1, 10]: 27 nM; IC50 [2, 11]: 0.31 nM; IC50 [3, 12]: 1410 nM |
| COc1cc(-c2[nH]c3cc(C)c(C4CCC(N(C)Cc5ncn(C)n5)CC4)nc3c2C(C)C)cn2ncnc12 (stereo not drawn) [Example 332] |  |  |  | 88 | 1.3 | 2660 |  |

From patent publication US10544143B2, “4-azaindole compounds” (BRISTOL-MYERS SQUIBB COMPANY, priority 2017, dated 2020)
